This is an account of results in patent publication US20250003952A1, “SENOLYTIC DRUG SCREENING METHOD AND SENOLYTIC DRUG” (KYOTO UNIVERSITY, priority 2021, published 2025).

The subject of one assay is senescent cells. Nature of the assay: Transcriptome / microarray / mRNA analysis of nutlin 3b-treated senescent cells. Format: cell-based, human. The protocol:
(§1) The latter information consists of 12,655 ChIP datasets from 903 antigens (transcription factors and epigenetic regulators).
A microarray dataset on nutlin 3b-treated senescent cells was analyzed for 202 genes (GO:0042981) classified as regulation of the apoptotic process.
In the Fox family, FoxO protein is deeply involved in the senescence process.

For the next assay, the system named is IMR90 cells. Nature of the assay: Senolysis / cell death of young and Ras-induced senescent IMR90 cells. Format: cell-based, human.
From the text: Ras gene with oncogenic mutation was introduced into young cells (within 1 month of continuous culture) of IMR90 cells by retroviral infection to acquire senescent cells. […] The control received only DMSO treatment. Representative images of cells observed under a microscope are shown (FIG. 11).
An oncogenic mutated Ras gene was introduced into young cells (within 1 month of continuous culture) of IMR90 cells by retroviral infection to acquire stress-induced senescent cells. The young cells and the senescent cells were both treated with different concentrations of the RSK kinase inhibitor BI-D1870 for 96 hours to evaluate cell death.
An oncogenic mutated Ras gene was introduced into young cells (within 1 month of continuous culture) of IMR90 cells by retroviral infection to acquire stress-induced senescent cells. The young cells and the senescent cells of IMR90 were both transfected with an RSK1 siRNA (two types of siRNA #1 (SEQ ID NO: 7) or #2 (SEQ ID NO: 8) having different target sequences) or a control to knock down RSK1. Representative images of cells observed under a microscope are shown (upper diagram in FIG. 20).
An oncogenic Ras was introduced into young cells (within 1 month of continuous culture) of IMR90 cells to induce senescent cells (OIS). The young cells and the senescent cells of IMR90 were transfected with two HIF-2α-specific siRNAs (SEQ ID NO: 9 and SEQ ID NO: 10) having different target sequences to knock down HIF-2α.
An oncogenic Ras was introduced into young cells (within 1 month of continuous culture) of IMR90 cells to induce senescent cells (OIS). The young cells and the senescent cells of IMR90 were transfected with a BIM-specific siRNA to knock down BIM.
An oncogenic Ras was introduced into young cells (within 1 month of continuous culture) of IMR90 cells to induce senescent cells (OIS). In the young cells and the senescent cells of IMR90, HIF-2α alone or both HIF-2α and BIM were knocked down by using their respective specific siRNAs (SEQ ID NO: 9, SEQ ID NO: 10), and cell death was confirmed (FIG. 28).
as §1

The next assay concerns p53. Nature of the assay: p53 activation (Western blot of p53 and p21) in young IMR90 cells. Format: cell-based, human. Particulars: 20 μM for 48 hours. The source says:
After the treatment, proteins were extracted from the cells to carry out Western blotted.
(A western blot detects proteins with antibodies after separation by electrophoresis.)

The next assay deals with caspase-3. Nature of the assay: Apoptosis by Western blotting of fragmented caspase-3 in young and senescent IMR90 cells. Particulars: different concentrations for 72 hours. The class given is cell-based, human. The text has this: Ras gene with oncogenic mutation was introduced into young cells (within 1 month of continuous culture) of IMR90 cells by retroviral infection to acquire stress senescent cells.

Assay [1] relates to Twenty-month-old C57BL/6 mice. Nature of the assay: Nutlin 3b administration to aged mice for 3 months. Format: in vivo, mouse. The source says: The vehicle group was given a solvent alone on the same schedule.
The mark [2] stands for this setting: 11.62 mg/kg intraperitoneal once a week for 3 months.

As for `COc1ccc(C2=N[C@H](c3ccc(Cl)cc3)[C@H](c3ccc(Cl)cc3)N2C(=O)N2CCNC(=O)C2)c(OC(C)C)c1` [nutlin 3b], in the assay with senescent cells (nutlin 3b treatment), the “expression of FOXM1, FOXF1, FOXC1, FOXL1, FOXL2, FOXD1, FOXB2, FOXI2, and FOXN1” value was “downregulated”; the “expression of FOXO1, FOXP1, FOXH1, FOXF2, FOXO4, FOXO3, FOXJ3, FOXQ1, FOXK2, FOXN3, FOXO6, FOXK1, FOXP4, FOXN2, and FOXJ2” value was “upregulated”; the “expression of FOXO1 and FOXP1” value was “remarkably upregulated”. For the same compound, the Survivin protein result in the assay on senescent cells (nutlin 3b-treated senescent cells) is on record as “downregulated”. Besides, the “downregulation of Survivin/BIRC5” value in the assay on senescent cells (nutlin 3b-treated senescent cells, microarray) is “about 30 fold”. For the same compound, in the assay on senescent cells (senescent cells), the “FoxM1 mRNA among FOX transcription family members” value was “most dramatically downregulated” and the “mRNAs for FoxM1 transcription targets (CCNB1, B2, D1, PLK1, ASPM, CEP55)” value is recorded as “significantly affected”. Also, the “senolysis by nutlin 3b treatment in BIM knockdown cells” value with IMR90 cells (IMR90 cells transfected with BIM-specific siRNA, nutlin 3b 96 hours) was “rescued by BIM knockdown”. The “cell death observed under a microscope” value in the assay with IMR90 cells (young and Ras-induced senescent IMR90 cells, 40 μM for 72 hours) is reported as “young cells are normal, but senescent cells selectively die”. In addition, the “senolytic effect (cell death)” value in the assay with IMR90 cells (young and senescent IMR90 cells, 96 hours, 20 or 40 μM) is “remarkable senolytic effect”. Moreover, in the assay on p53, the “protein level of p21” value is listed as “almost unchanged” and the “protein level of p53” value is reported as “almost unchanged”. For the same compound, in the assay with caspase-3 (Ras-induced senescent IMR90 cells), the caspase-3 fragmentation entry is recorded as “dose-dependent fragmentation of caspase 3”. Further, the caspase-3 fragmentation entry in the assay on caspase-3 (young IMR90 cells) is given as “did not cause caspase-3 fragmentation”. In assay [1] (setting [2]), the “lactate level (plasma)” value is on record as “improved”, the “liver function marker plasma albumin level” value is “improved”, the “muscle strength (wire hang test)” value is given as “improved” and the “renal function marker plasma BUN” value is given as “improved”. Further, in assay [1] (setting [2]), the “renal function marker plasma creatinine” value is “improved”. Further, the “degree of cellular senescence in adipose tissue (SA ß-Gal staining)” value in assay [1] (11.62 mg/kg once a week for 3 months) was “improved”. The “p21-positive cells in the liver” value in assay [1] (histochemical analysis, 11.62 mg/kg once a week for 3 months) is listed as “significantly decreased”. In addition, the “SASP factors (IL6, CXCL1, TNFα, and CCL5)” value in assay [1] (liver mRNA, 11.62 mg/kg once a week for 3 months) is on record as “reductions”. Further, the “F4/F80-positive cells (macrophage infiltration)” value in assay [1] (liver, 11.62 mg/kg once a week for 3 months) is listed as “reduced”.
